# Source: ChEMBL document CHEMBL1201862, “PubChem BioAssay data set” (2004)
#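 A five-concentration, 48-hour dose response in 96-well plates underlies each endpoint, interpolated linearly between surrounding concentrations. GI50 is the concentration that inhibits growth by half.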 Active and inactive are the calls of the source. No stated cut-off is given here; in the data, active = GI50 up to about 1.1 µM and inactive = higher.
# Tests used:
# Assay in all cases: DTP human tumour cell line panel, 48 h
# MDA-N = tested on: MDA-N
# SN12C = tested on: SN12C
# RXF 393 = tested on: RXF 393
# HCC 2998 = tested on: HCC 2998
# NCI-H23 = tested on: NCI-H23
# Malme-3M = tested on: Malme-3M
# HCT-15 = tested on: HCT-15
# SF-295 = tested on: SF-295
# SK-MEL-2 = tested on: SK-MEL-2
# DU-145 = tested on: DU-145
# UACC-257 = tested on: UACC-257
# IGROV-1 = tested on: IGROV-1
# HCT-116 = tested on: HCT-116
# HOP-62 = tested on: HOP-62
# MDA-MB-231 = tested on: MDA-MB-231
# SK-MEL-28 = tested on: SK-MEL-28
# CAKI-1 = tested on: CAKI-1
# OVCAR-3 = tested on: OVCAR-3
# OVCAR-5 = tested on: OVCAR-5
Compound,GI50 (MDA-N),GI50 (SN12C),GI50 (RXF 393),GI50 (HCC 2998),GI50 (NCI-H23),GI50 (Malme-3M),GI50 (HCT-15),GI50 (SF-295),GI50 (SK-MEL-2),GI50 (DU-145),GI50 (UACC-257),GI50 (IGROV-1),GI50 (HCT-116),GI50 (HOP-62),GI50 (MDA-MB-231),GI50 (SK-MEL-28),GI50 (CAKI-1),GI50 (OVCAR-3),GI50 (OVCAR-5)
O=C(C#Cc1cn(C2CC(O)C(CO)O2)c(=O)[nH]c1=O)c1ccccc1 (stereo unspecified),60.3 µM (inactive),31.8 µM (inactive),17.5 µM (inactive),> 100 µM (inactive),> 100 µM (inactive),12.2 µM (inactive),> 100 µM,> 100 µM (inactive),> 100 µM (inactive),> 100 µM (inactive),55 µM (inactive),> 100 µM (inactive),42.5 µM (inactive),> 100 µM (inactive),> 100 µM (inactive),39.5 µM (inactive),> 100 µM (inactive),21.1 µM (inactive),
CN1CCc2c(sc3nc(S)nc(S)c23)C1,> 100 µM (inactive),> 100 µM (inactive),> 100 µM (inactive),,> 100 µM (inactive),> 100 µM (inactive),> 100 µM,> 100 µM (inactive),> 100 µM (inactive),> 100 µM (inactive),> 100 µM (inactive),> 100 µM (inactive),> 100 µM (inactive),> 100 µM (inactive),39.5 µM (inactive),> 100 µM (inactive),> 100 µM (inactive),> 100 µM (inactive),> 100 µM (inactive)
CC(C)(C)C1=CC(C)(n2[nH]c(=O)n(-c3ccccc3)c2=O)C=C(C(C)(C)C)C1=O,> 100 µM (inactive),> 100 µM (inactive),,> 100 µM (inactive),> 100 µM (inactive),> 100 µM (inactive),> 100 µM,> 100 µM (inactive),> 100 µM (inactive),> 100 µM (inactive),> 100 µM (inactive),,> 100 µM (inactive),,> 100 µM (inactive),> 100 µM (inactive),> 100 µM (inactive),,
CC(=O)OCc1cc(CCC(=O)NCCNc2c3ccccc3nc3ccccc23)cc(COC(C)=O)c1O[Si](C)(C)C(C)(C)C,5.85 µM (inactive),1.83 µM (inactive),3.48 µM (inactive),,14.5 µM (inactive),6.25 µM (inactive),14.4 µM,2.67 µM (inactive),8.95 µM (inactive),12.1 µM (inactive),4.36 µM (inactive),10.4 µM (inactive),4.61 µM (inactive),13.6 µM (inactive),3.37 µM (inactive),4.73 µM (inactive),,2 µM (inactive),13.4 µM (inactive)
CC(=O)OCC(C)C1=C(O)C(=O)C2(C)C/C=C(/C)CC/C=C(\C)CCC(O)C(C)CCC12 (stereo unspecified),17 µM (inactive),19 µM (inactive),12.3 µM (inactive),,17.8 µM (inactive),17.4 µM (inactive),17.6 µM,15.6 µM (inactive),20.7 µM (inactive),17.9 µM (inactive),18.6 µM (inactive),15.2 µM (inactive),18.8 µM (inactive),17 µM (inactive),16.3 µM (inactive),16.7 µM (inactive),17.3 µM (inactive),15.1 µM (inactive),17.3 µM (inactive)
COc1ccc(OCc2ccc3nc(-c4ccccc4)c(Cl)nc3c2)cc1,52.7 µM (inactive),24.3 µM (inactive),,27.7 µM (inactive),19 µM (inactive),12.9 µM (inactive),50.7 µM,21.7 µM (inactive),26.9 µM (inactive),> 100 µM (inactive),> 100 µM (inactive),38 µM (inactive),19.2 µM (inactive),14.2 µM (inactive),11.7 µM (inactive),47.3 µM (inactive),22.3 µM (inactive),84.3 µM (inactive),32.1 µM (inactive)
C=C1C(C(=O)OC)[C@H]1C(=O)OC (stereo partly specified),> 100 µM (inactive),> 100 µM (inactive),> 100 µM (inactive),> 100 µM (inactive),> 100 µM (inactive),,> 100 µM,> 100 µM (inactive),> 100 µM (inactive),> 100 µM (inactive),> 100 µM (inactive),> 100 µM (inactive),> 100 µM (inactive),> 100 µM (inactive),> 100 µM (inactive),> 100 µM (inactive),> 100 µM (inactive),> 100 µM (inactive),> 100 µM (inactive)
Cc1ccc(NCC2CC/C(=C\c3ccc(Cl)cc3)C2=O)cc1 (stereo unspecified),13.6 µM (inactive),13.1 µM (inactive),17 µM (inactive),30.6 µM (inactive),20.6 µM (inactive),18 µM (inactive),1.94 µM,28.1 µM (inactive),,30.1 µM (inactive),17.4 µM (inactive),16.6 µM (inactive),11.6 µM (inactive),50 µM (inactive),11.4 µM (inactive),15.6 µM (inactive),15.2 µM (inactive),14.3 µM (inactive),22 µM (inactive)
O=C(NC(=S)Nc1ccc2c(c1)Sc1ccccc1O2)c1ccc([N+](=O)[O-])cc1,> 100 µM (inactive),> 100 µM (inactive),> 100 µM (inactive),,> 100 µM (inactive),> 100 µM (inactive),> 100 µM,> 100 µM (inactive),> 100 µM (inactive),> 100 µM (inactive),> 100 µM (inactive),> 100 µM (inactive),> 100 µM (inactive),> 100 µM (inactive),> 100 µM (inactive),> 100 µM (inactive),> 100 µM (inactive),> 100 µM (inactive),> 100 µM (inactive)
CCNC1=C(NC(=O)c2ccc(OC)cc2)C(=O)c2ccccc2C1=O,37.2 µM (inactive),43.6 µM (inactive),28.5 µM (inactive),37.5 µM (inactive),43.6 µM (inactive),21.3 µM (inactive),48.4 µM,> 100 µM (inactive),,> 100 µM (inactive),19.4 µM (inactive),72.1 µM (inactive),36.3 µM (inactive),> 100 µM (inactive),92.9 µM (inactive),> 100 µM (inactive),,24 µM (inactive),> 100 µM (inactive)
OC(c1ccoc1)c1cc2ccccc2s1 (stereo unspecified),> 10 µM (inactive),> 10 µM (inactive),> 10 µM (inactive),> 10 µM (inactive),> 10 µM (inactive),,> 10 µM,> 10 µM (inactive),> 10 µM (inactive),> 10 µM (inactive),> 10 µM (inactive),> 10 µM (inactive),> 10 µM (inactive),> 10 µM (inactive),> 10 µM (inactive),> 10 µM (inactive),> 10 µM (inactive),> 10 µM (inactive),> 10 µM (inactive)
Cc1ccc(/N=N/c2c(O)c(C(=O)Nc3ccccc3)cc3ccccc23)c([N+](=O)[O-])c1,> 100 µM (inactive),> 100 µM (inactive),> 100 µM (inactive),,> 100 µM (inactive),> 100 µM (inactive),> 100 µM,70.8 µM (inactive),> 100 µM (inactive),> 100 µM (inactive),> 100 µM (inactive),> 100 µM (inactive),> 100 µM (inactive),> 100 µM (inactive),> 100 µM (inactive),> 100 µM (inactive),> 100 µM (inactive),> 100 µM (inactive),> 100 µM (inactive)
NC(=S)N/N=C/c1c[nH]c2ccccc12,> 100 µM (inactive),> 100 µM (inactive),> 100 µM (inactive),,> 100 µM (inactive),> 100 µM (inactive),> 100 µM,> 100 µM (inactive),> 100 µM (inactive),> 100 µM (inactive),> 100 µM (inactive),> 100 µM (inactive),> 100 µM (inactive),> 100 µM (inactive),> 100 µM (inactive),> 100 µM (inactive),> 100 µM (inactive),> 100 µM (inactive),> 100 µM (inactive)
c1ccc(C(NCC2CCO2)(c2ccccc2)c2ccccc2)cc1 (stereo unspecified),24.3 µM (inactive),22.8 µM (inactive),18.2 µM (inactive),16.9 µM (inactive),16.3 µM (inactive),18.7 µM (inactive),16.4 µM,15.1 µM (inactive),21.1 µM (inactive),27.7 µM (inactive),19.4 µM (inactive),15.2 µM (inactive),21.5 µM (inactive),,28.3 µM (inactive),28.6 µM (inactive),23.9 µM (inactive),18.5 µM (inactive),15.7 µM (inactive)
CN1CCc2c(sc3ncn(N)c(=N)c23)C1,> 100 µM (inactive),> 100 µM (inactive),> 100 µM (inactive),,> 100 µM (inactive),> 100 µM (inactive),> 100 µM,> 100 µM (inactive),61.2 µM (inactive),> 100 µM (inactive),> 100 µM (inactive),> 100 µM (inactive),> 100 µM (inactive),> 100 µM (inactive),> 100 µM (inactive),> 100 µM (inactive),> 100 µM (inactive),> 100 µM (inactive),> 100 µM (inactive)
CC(=O)OC1CC2c3cccc4c3C(CC2N(C)C1=O)CN4C(=O)c1ccccc1 (stereo unspecified),21.7 µM (inactive),18.8 µM (inactive),,15 µM (inactive),16.6 µM (inactive),,14.5 µM,23.2 µM (inactive),20.5 µM (inactive),16.6 µM (inactive),20.5 µM (inactive),14.6 µM (inactive),17 µM (inactive),23.2 µM (inactive),12.6 µM (inactive),21.6 µM (inactive),23 µM (inactive),13.8 µM (inactive),32.4 µM (inactive)
